Test results published in the supplement of paper PMC10307832.

What was measured:
Assay in all cases: relative viability (nuclei count vs DMSO), 5 days (fraction); higher = more cells survive
GSK-J4 + Luminespib = compound: CCOC(=O)CCNc1cc(N2CCc3ccccc3CC2)nc(-c2ccccn2)n1 [GSK-J4] + CCNC(=O)c1noc(-c2cc(C(C)C)c(O)cc2O)c1-c1ccc(CN2CCOCC2)cc1 [Luminespib] (partner 0.01 µM)
Outline: (§1)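 Lung cancer cell lines, seeded in 1536-well plates, were treated the following day by pin tool with a single drug or with five library-drug doses (not always all listed) in √10 steps on top of a fixed anchor-drug dose. Cells were fixed and nuclei stained in one step after 5 days, and nuclei were counted. Relative viability is the nuclei count for treated wells divided by that for vehicle wells, reported as medians of duplicate plates.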

GSK-J4 + Phenformin = compound: CCOC(=O)CCNc1cc(N2CCc3ccccc3CC2)nc(-c2ccccn2)n1 [GSK-J4] + N=C(N)NC(=N)NCCc1ccccc1 [Phenformin] (partner 250 µM)
Outline: as §1

GSK-J4 + Decitabine = compound: CCOC(=O)CCNc1cc(N2CCc3ccccc3CC2)nc(-c2ccccn2)n1 [GSK-J4] + Nc1ncn([C@H]2C[C@H](O)[C@@H](CO)O2)c(=O)n1 [Decitabine] (partner 2 µM)
Outline: as §1

AZ3146 + Linsitinib = compound: CN1CCC(CC1)OC2=CC(=C(C=C2)NC3=NC=C4C(=N3)N(C(=O)N4C)C5CCCC5)OC [AZ3146] + C[C@]1(O)C[C@@H](c2nc(-c3ccc4ccc(-c5ccccc5)nc4c3)c3c(N)nccn32)C1 [Linsitinib] (partner 1 µM)
Outline: as §1

| Cell Line | relative viability (GSK-J4 + Luminespib; first compound 0.5 µM) | relative viability (GSK-J4 + Luminespib; first compound 1.581 µM) | relative viability (GSK-J4 + Luminespib; first compound 5 µM) | relative viability (GSK-J4 + Luminespib; first compound 15.81 µM) | relative viability (GSK-J4 + Luminespib; first compound 50 µM) | relative viability (GSK-J4 + Phenformin; first compound 0.5 µM) | relative viability (GSK-J4 + Phenformin; first compound 1.581 µM) | relative viability (GSK-J4 + Phenformin; first compound 5 µM) | relative viability (GSK-J4 + Phenformin; first compound 15.81 µM) | relative viability (GSK-J4 + Phenformin; first compound 50 µM) | relative viability (GSK-J4 + Decitabine; first compound 0.5 µM) | relative viability (GSK-J4 + Decitabine; first compound 1.581 µM) | relative viability (GSK-J4 + Decitabine; first compound 5 µM) | relative viability (GSK-J4 + Decitabine; first compound 15.81 µM) | relative viability (GSK-J4 + Decitabine; first compound 50 µM) | relative viability (AZ3146 + Linsitinib; first compound 0.253 µM) | relative viability (AZ3146 + Linsitinib; first compound 0.8 µM) | relative viability (AZ3146 + Linsitinib; first compound 2.53 µM) | relative viability (AZ3146 + Linsitinib; first compound 8 µM) | relative viability (AZ3146 + Linsitinib; first compound 0.08 µM) |
| --- | --- | --- | --- | --- | --- | --- | --- | --- | --- | --- | --- | --- | --- | --- | --- | --- | --- | --- | --- | --- |
| NCI-H2342 | 0.736 | 0.783 | 0.865 | 0.951 | 0.858 | 0.652 | 0.629 | 0.573 | 0.706 | 0.595 | 0.645 | 0.691 | 0.776 | 0.75 | 0.7 | – | – | – | – | – |
| NCI-H1944 | 0.762 | 0.711 | 0.851 | 0.649 | 0.799 | 0.2 | 0.193 | 0.124 | 0.155 | 0.174 | 0.411 | 0.381 | – | 0.367 | 0.412 | 1.11 | 1.14 | 1.21 | 1.35 | – |
| SK-LU-1 | 0.214 | 0.195 | 0.166 | 0.201 | 0.212 | 0.48 | 0.495 | 0.323 | 0.365 | 0.245 | 0.653 | 0.605 | 0.538 | 0.633 | 0.524 | 1.4 | 1.13 | 1.27 | 0.547 | 1.02 |
| HCC-44 | 1.02 | 0.897 | – | 0.939 | 0.747 | 0.253 | 0.222 | 0.134 | 0.124 | 0.137 | 0.932 | 0.716 | 0.823 | 1.03 | 1.06 | 0.618 | 0.685 | 0.718 | 0.675 | 0.598 |
| 201T | 1.05 | 1.1 | 1.12 | 1.02 | 0.992 | 0.444 | 0.479 | 0.374 | 0.384 | 0.352 | 0.826 | 0.886 | 0.847 | 0.831 | 0.875 | 1.06 | 1.05 | 1.05 | 1.06 | 0.876 |
| IA-LM | – | – | – | – | – | – | – | – | – | – | – | – | – | – | – | 0.441 | 0.652 | 0.803 | 0.626 | 0.729 |
| NCI-H661 | 0.911 | 0.902 | 0.929 | 0.904 | 0.6 | 0.269 | 0.312 | 0.238 | 0.258 | 0.266 | 0.548 | 0.5 | 0.485 | 0.497 | 0.441 | 0.6 | 0.603 | 0.584 | 0.616 | 0.61 |
| NCI-H2087 | 0.172 | – | 0.166 | 0.162 | 0.174 | 0.466 | – | 0.541 | 0.452 | 0.456 | 0.312 | 0.218 | 0.353 | 0.224 | 0.249 | 0.952 | 1.11 | 1.02 | 1 | 0.816 |
| NCI-H647 | 0.29 | 0.125 | 0.235 | 0.166 | 0.125 | 0.618 | 0.398 | 0.415 | 0.498 | 0.532 | 0.376 | 0.393 | 0.374 | 0.337 | 0.496 | 1.3 | 1.1 | 1.16 | 0.434 | 1.14 |
